Results reported in US11999806B2, “Broad-spectrum polypeptide against enterovirus and application thereof” (WUHAN INSTITUTE OF VIROLOGY, CHINESE ACADEMY OF SCIENCES, priority 2018, dated 2024).
Values joined by “and” are separate entries in the source; they are usually repeats but may differ in a detail not shown here. Equal values may be shown once. No end group written: not given here.

Legend:
[1] = Cytotoxicity by CCK-8 in Vero cells; format: cell-based; details: 24 h, read-out: Cell viability (%)
Description: (§1) The experiment was performed as follows. • (1) Vero cells were plated in a 96-well plate at 100 μl per well. • (2) After the cells reached 70%-80% confluence, the MEM medium containing 10% serum was replaced with a MEM medium containing 2% serum. Then, polypeptide BP8, BP10 or BP15 was added to generate gradient concentrations of […], […], 12.5 μM, 25 μM, 50 μM, 100 μM, and 200 μM (final concentrations), respectively. • (3) The samples were collected 24 hours after the addition of the polypeptide, and 10 μl of live cell detection reagent CCK-8 was added to each well and mixed well. • (4) The plate was placed at 37° C. for 4 h. • (5) The absorbance value at OD450 was measured with a microplate reader.

[2] = test system: Vero cells; assay: Cytotoxicity by CCK-8 in Vero cells; format: cell-based; details: for Cell viability (%): 24 h; for cytotoxicity, result in words: CCK-8, 24 h
Description: as §1

[3] = Cytotoxicity by CCK-8 in RD cells; format: cell-based; details: human; for CC50 at 24 h: Table 1 summary, cell line not given, read-out: CC50
Description: (§2) The experiment was performed as follows. • (1) RD cells were plated in a 96-well plate at 100 μl per well. • (2) After the cells reached 70%-80% confluence, the MEM medium containing 10% serum was replaced with a MEM medium containing 2% serum. Then, polypeptide P2 was added to generate gradient concentrations of 0.01 μM, 0.1 μM, 1 μM, 10 μM, and 100 μM (final concentration), respectively. • (3) The test was performed 24 hours after the addition of the polypeptide, and 10 μl of viable cell detection reagent CCK-8 was added to each well and mixed well. • (4) The plate was incubated at 37° C. for 2 h. • (5) The absorbance value at OD450 was measured with a microplate reader.
as §2, with “P1” for “P2”, “concentrations),” for “concentration),”
(§3) RD cells were used to test the antiviral effect of polypeptide P1. When RD cells reached 80% confluence, polypeptide P1 was added at concentrations of 0 μM (control group), 0.01 μM, 0.1 μM, 1 μM, 10 μM, and 100 μM, respectively. Three parallel wells were used for each concentration. The test was carried out 24 hours later, and the cell viability was detected using the CCK-8 kit.
as §2, with “3A-TAT-EP” for “P2”, “concentrations),” for “concentration),”
as §3, with “3A-TAT-EP.” for “P1.”, “3A-TAT-EP” for “P1”
as §2, with “Then, 3A-EP-DRI or 3A-EP-PEG4-PA” for “Then, polypeptide P2”, “and 50” for “and 100”, “(final concentrations),” for “(final concentration),”
as §3, with “polypeptides 3A-EP-DRI and 3A-EP-PEG4-PA.” for “polypeptide P1.”, “3A-EP-DRI or 3A-EP-PEG4-PA” for “P1”, “50” for “100”, “kit. […]” for “kit.”

[4] = test system: RD cells; assay: Cytotoxicity by CCK-8 in RD cells; format: cell-based; details: RD cells; for Cell viability (%): 24 h, CCK-8 4 h (Example 18); for cytotoxicity, result in words: CCK-8, 24 h
Description: as §2
as §2, with “P1” for “P2”, “concentrations),” for “concentration),”
as §3
as §2, with “3A-TAT-EP” for “P2”, “concentrations),” for “concentration),”
as §3, with “3A-TAT-EP.” for “P1.”, “3A-TAT-EP” for “P1”
as §2, with “Then, 3A-EP-DRI or 3A-EP-PEG4-PA” for “Then, polypeptide P2”, “and 50” for “and 100”, “(final concentrations),” for “(final concentration),”
as §3, with “polypeptides 3A-EP-DRI and 3A-EP-PEG4-PA.” for “polypeptide P1.”, “3A-EP-DRI or 3A-EP-PEG4-PA” for “P1”, “50” for “100”, “kit. […]” for “kit.”

[5] = test system: CVB5; assay: Anti-CVB5 effect in RD cells, qRT-PCR; format: cell-based, Coxsackievirus B5; details: Example 20, read-out: IC50 against CVB5
Description: • (1) […] were plated in a 24-well cell plate. • (2) After the cells reached 70%-80% confluence, the MEM medium containing 10% serum was replaced with a MEM medium containing 2% serum (0.5 ml/well).

[6] = RD cells, 24 h, CCK-8 4 h (Example 18), read-out: Cell viability (%)

**Q.** With `CC(C)C[C@H](NC(=O)[C@H](Cc1c[nH]c2ccccc12)NC(=O)CNC(=O)[C@H](CCCCN)NC(=O)[C@H](CCC(=O)O)NC(=O)[C@H](CCCCN)NC(=O)[C@H](CS)NC(=O)[C@H](Cc1ccc(O)cc1)NC(=O)[C@H](CCC(=O)O)NC(=O)[C@H](CCCNC(=N)N)NC(=O)[C@@H](NC(=O)[C@H](C)NC(=O)[C@H](CCC(=O)O)NC(=O)CNC(=O)[C@H](CO)NC(=O)CNC(=O)[C@H](CCCNC(=N)N)NC(=O)[C@H](CCCNC(=N)N)NC(=O)[C@H](CCCNC(=N)N)NC(=O)[C@H](CCC(N)=O)NC(=O)[C@H](CCCNC(=N)N)NC(=O)[C@H](CCCNC(=N)N)NC(=O)[C@H](CCCCN)NC(=O)[C@H](CCCCN)NC(=O)[C@H](CCCNC(=N)N)NC(=O)CNC(=O)[C@@H](N)Cc1ccc(O)cc1)C(C)C)C(=O)N[C@H](C(=O)N1CCC[C@H]1C(=O)O)C(C)C` [BP15] as the compound, how does the viability at 24 h, 3.0625 µM [1] read?
**A.** 108%

**Q.** What about the viability at 24 h, 6.125 µM [1] of the same compound?
**A.** 125%

**Q.** What about the viability at 24 h, 12.5 µM [1] of the same compound?
**A.** 122%

**Q.** What about the viability at 24 h, 25 µM [1] of the same compound?
**A.** 116%

**Q.** What about the viability at 24 h, 50 µM [1] of the same compound?
**A.** 112%

**Q.** And the viability at 24 h, 100 µM [1]?
**A.** 75.8%

**Q.** And the viability at 24 h, 200 µM [1]?
**A.** 20%

**Q.** What about the “Cell viability (%)” value ([2]; 3.0625 μM) of the same compound?
**A.** 105.9733% and 109.128%

**Q.** And the “Cell viability (%)” value ([2]; 6.125 μM)?
**A.** 127.0907% and 124.0647%

**Q.** And the “Cell viability (%)” value ([2]; 12.5 μM)?
**A.** 120.3949% and 122.777%

**Q.** And the “Cell viability (%)” value ([2]; 25 μM)?
**A.** 111.0595% and 118.2059%

**Q.** And the “Cell viability (%)” value ([2]; 50 μM)?
**A.** 109.4499% and 102.9473%

**Q.** And the “Cell viability (%)” value ([2]; 100 μM)?
**A.** 87.11% and 76.81%

**Q.** What about the “Cell viability (%)” value ([2]; 200 μM) of the same compound?
**A.** 13.65% and 13.13% and 13.4559%

**Q.** What about the “cytotoxicity, result in words” value [2] of the same compound?
**A.** not toxic to cells within 100 μM

**Q.** What about the viability at 24 h, 3.0625 µM [3, 6] of the same compound?
**A.** 91%

**Q.** And the viability at 24 h, 6.125 µM [3, 6]?
**A.** 104%

**Q.** What about the viability at 24 h, 12.5 µM [3, 6] of the same compound?
**A.** 96.7%

**Q.** What about the viability at 24 h, 25 µM [3, 6] of the same compound?
**A.** 96.7%

**Q.** And the viability at 24 h, 50 µM [3, 6]?
**A.** 107%

**Q.** And the viability at 24 h, 100 µM [3, 6]?
**A.** 96.3%

**Q.** And the CC50 at 24 h [3]?
**A.** > 100 µM

**Q.** What about the “Cell viability (%)” value ([4]; 3.0625 μM) of the same compound?
**A.** 85.77% and 91.09%

**Q.** And the “Cell viability (%)” value ([4]; 6.125 μM)?
**A.** 105.7678% and 97.72%

**Q.** What about the “Cell viability (%)” value ([4]; 12.5 μM) of the same compound?
**A.** 98.76% and 95.25%

**Q.** What about the “Cell viability (%)” value ([4]; 25 μM) of the same compound?
**A.** 92.912% and 95.05%

**Q.** What about the “Cell viability (%)” value ([4]; 50 μM) of the same compound?
**A.** 103.6251% and 100.2489%

**Q.** And the “Cell viability (%)” value ([4]; 100 μM)?
**A.** 99.4048% and 104.9237%

**Q.** And the “cytotoxicity, result in words” value [4]?
**A.** not toxic to cells within 100 μM

**Q.** And the IC50 [5]?
**A.** 6.76 µM

**Q.** What does the source list for YGRKKRRQRRRGSGEAVREYCKEK [BP10]?
**A.** viability at 24 h, 3.0625 µM [1]: 107%; viability at 24 h, 6.125 µM [1]: 119%; viability at 24 h, 12.5 µM [1]: 122%; viability at 24 h, 25 µM [1]: 117%; viability at 24 h, 50 µM [1]: 109%; viability at 24 h, 100 µM [1]: 92.8%; viability at 24 h, 200 µM [1]: 83.1%; Cell viability (%) ([2]; 3.0625 μM): 106.2952% and 107.1965%; Cell viability (%) ([2]; 6.125 μM): 119.236% and 118.9785%; Cell viability (%) ([2]; 12.5 μM): 120.8456% and 123.9359%; Cell viability (%) ([2]; 25 μM): 117.3689% and 116.0169%; Cell viability (%) ([2]; 50 μM): 118.399% and 120.0086%; Cell viability (%) ([2]; 100 μM): 92.32% and 94.06%; Cell viability (%) ([2]; 200 μM): 86.72% and 82.22%; cytotoxicity, result in words [2]: not toxic to cells within 200 μM; viability at 24 h, 3.0625 µM [3, 6]: 97.7%; viability at 24 h, 6.125 µM [3, 6]: 98.5%; viability at 24 h, 12.5 µM [3, 6]: 94.8%; viability at 24 h, 25 µM [3, 6]: 109%; viability at 24 h, 50 µM [3, 6]: 109%; viability at 24 h, 100 µM [3, 6]: 107%; viability at 24 h, 200 µM ([3]; RD cells, 200 μM, 24 h, CCK-8 4 h (Example 18), read-out: Cell viability (%)): 79.7%; CC50 at 24 h [3]: > 200 µM; Cell viability (%) ([4]; 3.0625 μM): 98.99% and 103.5309%; Cell viability (%) ([4]; 6.125 μM): 93.25% and 92.62%; Cell viability (%) ([4]; 12.5 μM): 97.35% and 100.8827%; Cell viability (%) ([4]; 25 μM): 99.56% and 96.2169%; Cell viability (%) ([4]; 50 μM): 115.4477% and 116.3934%; Cell viability (%) ([4]; 100 μM): 112.232% and 114.3758%; Cell viability (%) ([4]; 200 μM): 85.18% and 97.54%; cytotoxicity, result in words [4]: not toxic to cells within 200 μM; IC50 [5]: 1.33 µM
